Experimental findings from article PMC6120666 (The EMBO Journal, 2018) are described below.

Assay [1] deals with RAW264.7 cells (TLR4 activation by LPS). Briefly: TNF ELISA, LPS-stimulated RAW264.7 cells. The assay is classed as cell-based, mouse. The settings on record: LPS 10 ng/ml; inhibitor even at 1 μM. How it is done: Figure EV3 Activity of select CSLP inhibitors in MDP and LPS‐stimulated RAW264.7 macrophages • A, B ELISA measurement of TNF release from RAW264.7 cells treated with MDP (10 μg/ml, 24 h) (A) or LPS (10 ng/ml) (B) and CSLP compounds as indicated. Values are expressed relative to the TNF release in cells treated with MDP without inhibitor (A) or as ng/ml TNF (B). Data information: Data represent the mean ± SEM of 2–3 independent experiments. Statistical significance in (B) is determined in relation to […] samples without inhibitor *P < 0.05, **P < 0.01, n.s., not significant. Two‐tailed unpaired Student's t‐test was used to determine statistical significance. […]
For HEKBlue assay, cells were seeded into clear 96 well plates at 7.5x10^3 cells/well and allowed to attach for 48 h. […] After 8-9 h, absorbance at 620 nm was measured using Victor3V plate reader (Perkin Elmer, Waltham, MA). Values of media-only wells were subtracted and %inhibition for each compound concentration relative to the DMSO/L18-MDP-treated controls were calculated.
Inhibition values + StDev were fitted by non-linear regression using Prism software (GraphPad Software, La Jolla, CA) to calculate IC50 values. […] After induction, 20 μl of media was mixed with 180 μl of QUANTI-Blue reagent (InvivoGen) and incubated at 37 °C for 3-4 h, followed by absorbance measurement at 620 nm. […]
Background: In an ELISA, binding on a coated surface is turned into a signal by an enzyme label.

Assay [2] addresses T1, proteins of U2OS cell lysate (Homo sapiens, UniProt P28072).
T1 construct: Proteins enriched by c-ponatinib from U2OS cell lysate; endogenous in cells; host or cells: U2OS cell lysate
In words: Drug affinity chromatography with c-ponatinib and LC-MS/MS (ponatinib interactome). The assay is classed as binding. How it is done: (§1) Drug affinity chromatography
(§2) U2OS cells were grown until approximately 80% confluent before being pelleted and washed with PBS. Cell pellets were subsequently lysed in buffer A (50 mM Tris pH 7.5, 0.8% v/v NP-40, 5% v/v glycerol, 1.5 mM MgCl2, 100 mM NaCl, 25 mM NaF, 1 mM Na3VO4, 1 mM PMSF, 1mM DTT, 10 μg/mL TLCK, 1 μg/ml Leupeptin, 1 μg/ml Aprotinin, 1 μg/ml soy bean trypsin) and lysates prepared […]
(§3) concentration was determined and lysates stored at -80 °C.
(§4) Briefly, 100 μl of bead slurry (50% in isopropanol) were used for each pulldown experiment. Beads were washed with DMSO (3 × 500 μl), and resuspended in DMSO (50 μl), to which the amine (0.025 μmol) and triethylamine (0.75 μl) were added. The beads were incubated at room temperature for 16 h, and depletion of free amine from the supernatant was determined by LC-MS analysis. Ethanolamine (2.5 μl) was then added to block any unreacted NHS sites, and the beads incubated for a further 16 h. Derivatized beads were then washed with DMSO (3 × 500 μl), buffer A (3 × 1 ml), and incubated with cell lysates (2 mg of protein per pulldown, at 6 […]
(§5) Beads and treated lysates were incubated for 2 h at 4 °C before washing with buffer A (5 ml), Buffer B (50 mM HEPES pH 7.5, 100 mM NaCl, 500 μM EDTA, 2.5 ml), and eluted with formic acid (100 mM, 250 μl). Samples were neutralized with triethylammoniumbicarbonate (TEAB, 1M, 62.5 μl) and stored at -20 °C until preparation for proteomic analysis.
(§6) Samples were reduced with DTT (10 mM final concentration) for 30 min at room temperature, alkylated with iodoacetamide (55 mM final concentration) for 30 min at room temperature, diluted to 300 μl with TEAB, and incubated with trypsin (6 μl, 0.2 mg/ml) overnight at 37 °C. The digests were desalted using SEPAC lite columns (Waters), eluted with 69 % v/v MeCN, 0.1 % v/v FA in H2O (1 ml) and dried in vacuo. Dried peptides were stored at -20 °C before resuspension in 2 % v/v MeCN, 1 % v/v FA in H2O (20 μl) for LC-MS/MS analysis.
(§7) LC-MS/MS data acquisition
(§8) Mass spectrometry data was acquired at the Discovery Proteomics Facility (University of Oxford).
(§9) Digested samples were analyzed by nano-UPLC–MS/MS using a Dionex Ultimate 3000 nano UPLC with EASY spray column (75 μm × 500 mm, 2 μm particle size, Thermo Fisher Scientific) with a 60 min gradient of 0.1 % (v/v) formic acid in 5 % (v/v) DMSO to 0.1 % (v/v) formic acid with 35 % (v/v) acetonitrile in 5 % (v/v) DMSO at a flow rate of approximately 250 nl min−1 (600 bar per 40 °C column temperature). Mass spectrometry data was acquired either with an Orbitrap Q Exactive (Survey scans acquired at a resolution of 70,000 @ 200m/z and the 15 most abundant precursors were selected for HCD fragmentation), or an Orbitrap Q Exactive High Field (HF) instrument (survey scans were […]

Assay [3] concerns the target T2, proteins of U2OS cell lysate (Homo sapiens, UniProt Q9Y6K9).
T2 construct: Proteins enriched by c-ponatinib from U2OS cell lysate; endogenous in cells; host or cells: U2OS cell lysate
Described as above. The assay is classed as binding. How it is done:
as §1, §2, §3, §4, §5, §6, §7, §8, §9

T1 sequence (P28072 whole entry): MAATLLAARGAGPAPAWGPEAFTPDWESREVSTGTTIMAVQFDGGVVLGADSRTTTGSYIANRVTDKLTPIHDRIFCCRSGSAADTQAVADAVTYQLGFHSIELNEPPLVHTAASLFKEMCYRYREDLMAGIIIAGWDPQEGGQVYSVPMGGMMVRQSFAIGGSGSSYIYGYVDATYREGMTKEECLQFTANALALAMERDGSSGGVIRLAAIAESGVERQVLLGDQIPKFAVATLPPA
T2 sequence (Q9Y6K9 whole entry): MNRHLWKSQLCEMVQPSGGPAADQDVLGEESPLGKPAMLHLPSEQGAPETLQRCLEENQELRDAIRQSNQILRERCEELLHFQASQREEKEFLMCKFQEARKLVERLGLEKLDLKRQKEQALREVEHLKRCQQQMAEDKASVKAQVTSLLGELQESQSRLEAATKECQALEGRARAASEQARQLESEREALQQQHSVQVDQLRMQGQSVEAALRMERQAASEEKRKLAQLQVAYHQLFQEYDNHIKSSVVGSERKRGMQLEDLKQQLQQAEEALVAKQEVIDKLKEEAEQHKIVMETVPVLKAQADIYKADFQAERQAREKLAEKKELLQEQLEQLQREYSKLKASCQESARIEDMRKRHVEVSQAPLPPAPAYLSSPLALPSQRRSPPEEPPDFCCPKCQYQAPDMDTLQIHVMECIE

Regarding `CCCS(=O)(=O)Nc1cc(-c2cc(-c3ccc(N4CCNCC4)cc3)cnc2N)cc(F)c1OC` [CSLP37], in assay [1], the “TNF release following LPS” value is given as “neither CSLP37 nor CSLP43 attenuated”.

Regarding `CCCS(=O)(=O)Nc1cc(-c2cc(-c3ccc(N4CCNCC4)cc3)cnc2N)cc(OC)c1OC` [CSLP43], in assay [1], the “TNF release following LPS” value is reported as “neither CSLP37 nor CSLP43 attenuated”.

For `Cc1ccc(C(=O)Nc2ccc(CN3CCN(C)CC3)c(C(F)(F)F)c2)cc1C#Cc1cnc2cccnn12` [PON], the “Average LFQ PON_WT” value in assay [2] (PSMB6, Proteasome subunit beta type-6) is on record as 22.7359; in assay [3] (IKBKG, NF-kappa-B essential modulator) it was 21.7256.

Turning to `Cc1ccc(C(=O)Nc2ccc(CN3CCN(CCCN)CC3)c(C(F)(F)F)c2)cc1C#Cc1cnc2cccnn12` [c-ponatinib, reference compound], the “Average LFQ intensity” value is 22.7359 in assay [2] (captured protein PSMB6, Rank 145) and 21.7256 in assay [3] (captured protein IKBKG, Rank 212).
